Test results reported in ChEMBL document CHEMBL1132423, “Diethylcarbamoylating/nitroxylating agents as dual action inhibitors of aldehyde dehydrogenase: a disulfiram-cyanamide merger” (J Med Chem, 1999).

Molecular target: T1, Aldehyde dehydrogenase 1A1 (Rattus norvegicus) (UniProt P51647)
T1 sequence (whole entry): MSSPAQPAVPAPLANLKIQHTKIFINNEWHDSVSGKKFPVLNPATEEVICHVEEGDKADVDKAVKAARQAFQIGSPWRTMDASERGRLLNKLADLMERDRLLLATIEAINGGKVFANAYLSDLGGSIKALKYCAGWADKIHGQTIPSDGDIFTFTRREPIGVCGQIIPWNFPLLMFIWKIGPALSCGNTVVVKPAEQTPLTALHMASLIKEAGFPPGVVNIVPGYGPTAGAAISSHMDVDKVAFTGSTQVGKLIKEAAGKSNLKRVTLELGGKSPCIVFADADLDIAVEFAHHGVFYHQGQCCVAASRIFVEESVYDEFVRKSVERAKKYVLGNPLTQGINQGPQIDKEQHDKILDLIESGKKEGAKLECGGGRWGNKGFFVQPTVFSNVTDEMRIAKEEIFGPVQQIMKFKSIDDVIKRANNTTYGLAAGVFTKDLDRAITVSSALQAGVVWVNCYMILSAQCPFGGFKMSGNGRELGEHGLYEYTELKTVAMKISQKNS
Assay: Percent inhibition of rat hepatic mitochondrial […] dehydrogenase
Details: concentration not given here

CCOC(=O)N(OC(=O)N(CC)CC)S(=O)(=O)c1ccccc1 was tested, and the inhibition was > 70%.
